Laboratory results reported in US9872840B2, “Effect of garcinol in delaying the progression of diabetic nephropathy” (Delhi Institute of Pharmaceutical Sciences and Research, priority 2013, dated 2018).

Key:
STZ diabetic rats [1] = test: Kidney histopathology, glomerulosclerotic index (periodic acid-Schiff); type: in vivo, rat; conditions: 8 weeks; for GSI (glomerulosclerotic index): kidney of STZ diabetic rats, sclerosis graded 0 to 4, garcinol 200 mg/kg, olmesartan 6 mg/kg, glimepiride 1 mg/kg
Description: (§1) Kidney sections were stained with periodic acid-Schiff's reagent and Masson's modified trichrome to assess glomerulosclerosis and collagenous tubulointerstitial matrix, respectively.
In 4 μm kidney sections stained with periodic acid-Schiff's reagent, 150 glomeruli from each animal were examined. The extent of sclerosis in each glomerulus was subjectively graded on a scale of 0 to 4, with the following grades: grade 0 normal, grade 1 sclerotic area <25% (minimal), grade 2 sclerotic area 25-50% (moderate), grade 3 sclerotic area 50-75% (moderate to severe) and grade 4 sclerotic area 75-100% (severe). A glomerulosclerotic index was then calculated using the formula: […]
Where GSI is glomerulosclerotic index, Fi is the % of glomeruli in the rat with a given score (i).

rat nephrin = test: Immunohistochemistry for nephrin in kidney; type: in vivo; conditions: kidney of STZ diabetic rats, 8 weeks; garcinol 200 mg/kg, olmesartan 6 mg/kg, glimepiride 1 mg/kg
Protocol: Immunohistochemistry was done as previously described according to a modified method using a Polyclonal (C-Terminus) Antibody which is identical to rat nephrin. These experiments were done using 4 micron […] kidney sections, as previously reported. Paraffin-embedded tissues sections were deparaffinized in microwave oven for 3 minutes. The sections were rehydrated in graded series of xylene and alcohols. Endogenous peroxidase activity was blocked by 3% hydrogen peroxide in distilled water for 15 minutes. Antigen retrieval was achieved by steam heating in a solution of citrate buffer, pH 6.0 for 30 minutes. Sections were blocked with 10% normal goat serum for polyclonal antibodies. Sections were then incubated for one hour with primary antibody Polyclonal (C-Terminus) Antibody which is identical to rat nephrin. The sections were then incubated in avidin-biotin complex at 1:25 dilution for 30 min at room temperature and developed using diaminobenzidine (DAB) as chromogen. After washing, the sections were counter-stained with hematoxylin and coverslipped. Negative controls were carried out by incubation in the absence of the primary antibody. The quantification of nephrin was done using point counting technique for each animal as described in established method. Davis B J, Johnston C I, Burrell, L M, Burns W C, Kubota E, Cao Z, Cooper M E, Allen T J. Renoprotective effects of vasopeptidase inhibition in an experimental model of diabetic nephropathy. Diabetologia. 2003; 46(7): 961-71.

STZ diabetic rats [2] = test: Tubulointerstitial matrix index (Masson's trichrome); type: in vivo, rat; conditions: kidney of STZ diabetic rats, 8 weeks; semi-quantified; garcinol 200 mg/kg, olmesartan 6 mg/kg, glimepiride 1 mg/kg
Protocol: as §1
The accumulation of matrix within the tubulointerstitial was assessed on Masson's trichrome stained sections. Blue area on a trichrome-stained section was selected for its color range and the proportional area of tissue with this range of color was then semi-quantified as tubulointerstitial matrix index (TIMI).

STZ diabetic rats [3] = test: Hemodynamic parameters by tail cuff apparatus; type: in vivo, rat
Protocol: Hemodynamic parameters were measured using tail cuff apparatus (Non-invasive measurement of Blood Pressure-Kent Scientific, USA). Garcinol was also observed to improve the systolic, diastolic and mean Blood Pressure.

STZ diabetic rats [4] = test: DNA fragmentation assay (TUNEL) for apoptosis in kidney; type: in vivo, rat; conditions: for Apoptosis: kidney of STZ diabetic rats, 8 weeks, garcinol 200 mg/kg, olmesartan 6 mg/kg, glimepiride 1 mg/kg; for DNA fragmentation / apoptosis in kidney (qualitative): kidney of diabetic rats, FIG. 4
Protocol: For detection and localization of apoptosis in kidney, the technique of terminal deoxynucleotidyl transferase-mediated dUTP nick end labeling (TUNEL) (Apo-BrdU-IHC™ In Situ DNA Fragmentation Assay Kit, Biovison, USA) were employed. Briefly, sections were deparaffinized, hydrated, and digested with proteinase K (20 μg/ml), and then added biotinylated dUTP to the 3′ end of DNA fragments by incubating sections in 0.05 mol/l Tris-HCl buffer (pH 7.6) with 0.03 U/μl TdT and 0.04 nmol/μl biotin-11-dUTP at 37° C. for 1 h. The sections were rinsed in PBS. Endogenous peroxidase was blocked with 0.3% H2O2 in distilled H2O. The sections were rinsed with PBS and covers with 2% blocking solution in 0.1 mol/l sodium maleate to reduce background staining. The sections were then incubated with avidin-peroxidase complexes in PBS (1:50) for 30 min and rinsed with PBS (3×5 min). Peroxidase activity was visualized with 3,3′-diaminobenzidine until the brown product was clearly visible. The sections were then counterstained with methyl green. The positive apoptotic cells were the cells with brown nucleus 2.10.

STZ diabetic rats [5] = test: Renal function and biochemical parameters in plasma/serum of STZ diabetic rats; type: in vivo, rat; conditions: 8 weeks, garcinol 200 mg/kg, olmesartan 6 mg/kg, glimepiride 1 mg/kg
Protocol: (§2) The Garcinol used for the experimental studies was bought from Sami Labs, Hyderabad. It was administered at the dose of 200 mg/kg dispersed in water with 1% CMC. Further, the experimental procedures were conducted according to the Institutional Animal Ethical Committee (protocol no. DIPSAR/IAEC/2009/01) and CPCSEA guidelines. All rats were housed under conventional conditions with controlled temperature, humidity and light (12 hours light-dark cycle), and were provided with a standard commercial diet and water (ad libitum). Healthy albino rats of Wistar strain were kept for breeding. Diabetes was induced by administration of streptozotocin (STZ, 90 mg/kg, i.p.) to a group of 2 day old pups. Age-matched control rats were given an equal volume of vehicle and considered as ‘Normal’ group of rats. Six weeks after injection, the blood glucose level was measured from the tail vein. Rats with a fasting blood glucose level over 160 mg/dl were considered as diabetic.
(§3) After 6 weeks, four groups of animals, each comprising of 8 animals were made. The groups were assigned to receive vehicle or garcinol (200 mg/kg dispersed in 1% CMC); Olmesartan (6 mg/kg/day) and Glimepiride (1 mg/kg/day) once daily for 8 weeks. After the final drug administration, body weight was measured and blood samples were collected in both fasting and post prandial conditions. The kidney of treated and untreated animals were isolated and fixed in 10% buffered formalin solution to prepare paraffin sections.
Biochemical estimation for glucose, insulin, albumin and total proteins; glomerular proteins (viz β-2 microglobulin, serum cystatin c and serum creatinine) for the determination of GFR; inflammatory cytokines and growth factors like Tumor necrosis factor (TNF-α), Nitric Oxide (NO), Transforming growth factor (TGF-β1) and Vascular endothelial growth factor (VEGF) and kidney specific molecular markers involving adiponectin and erythropoietin were made in plasma/serum.

STZ diabetic rats [6] = test: Fasting and post prandial blood glucose in STZ diabetic rats; type: in vivo, rat; parameters: Reduction of post prandial glucose: concentration or dose not given beside the values; conditions: for Reduction of fasting blood glucose / Reduction of post prandial glucose: 8 weeks treatment; for Reduction of post prandial glucose: compared to diabetic group; for Blood glucose, fasting, before treatment / Blood glucose, post prandial, before treatment: baseline before treatment; for Blood glucose, fasting, before treatment / Blood glucose, post prandial, before treatment / Blood glucose, fasting, after treatment / Blood glucose, post prandial, after treatment: mean ± S.E.M., eight animals; for Blood glucose, fasting, after treatment / Blood glucose, post prandial, after treatment: once daily for 8 weeks, garcinol 200 mg/kg, olmesartan 6 mg/kg/day, glimepiride 1 mg/kg/day
Protocol: as §2, §3
However, the decrease was less than antidiabetic reference glimepiride treatment (˜27%). Moreover, the reduction of post prandial glucose with garcinol treatment (˜36%) was more than olmesartan (˜10%) but was lower than observed with glimepiride treatment (almost 43%) when compared to diabetic group.

STZ diabetic rats [7] = test: Homeostatic model assessment (HOMA-Index, β-cell function) in STZ diabetic rats; type: in vivo, rat; conditions: STZ diabetic rats after treatment; mean ± S.E.M., five animals
Description: The homeostatic model assessment (HOMA) is a method used to quantify insulin resistance and beta-cell function (Homeostasis model assessment: insulin resistance and beta-cell function from fasting plasma glucose and insulin concentrations in man. Diabetologia 28: 412-9.). The approximating equation for insulin resistance, in the early model, used a fasting plasma sample, and was derived by use of the insulin-glucose product, divided by a constant. HOMA-IR=(Glucose×Insulin)/405;HOMA-% B=([…])/(Glucose-63)
Where IR is insulin resistance and % B is the β-cell function where Glucose is given in mg/dl and Insulin is given in μU/mL (both during fasting). Garcinol inhibited insulin resistance assessed by HOMA-Index with significance when compared with the diabetic group.

[8] = test system: glucose transporter 4 (GLUT4); test: GLUT-4 protein expression in soleus muscle of diabetic rats (Western blot); type: in vivo, rat; conditions: 8 weeks treatment, FIG. 3
Protocol: (§4) For determination of glucose transporter 2 (GLUT2) protein expressions in liver and glucose transporter 4 (GLUT4) protein expressions in skeletal muscle; each sample prepared was mixed with 1% sodium dodecyl sulfate and 50 mM dithiothreitol, and the mixture was subjected to electrophoresis with 10% polyacrylamide gel. The separated proteins on the gel were electrotransferred to a polyvinylidene difluoride membrane. After blocking with 5% skim milk solution including 0.05% Poly (Oxyethylene) sorbitan monolaurate (Tween 20) overnight at 4° C., the membrane was reacted with anti-GLUT-2 antibody (Abcam, UK) & anti-GLUT-4 antibody (Abcam, UK) for 2 h. Subsequently, it was incubated with horseradish peroxidase conjugated IgG (diluted 1:2000) [Jackson immunoresearch laboratories, USA] for 2 h at room temperature (Western Blot). Reduced qualitative expression of GLUT2 and GLUT 4 in liver and muscle respectively of diabetic rats were improved with the garcinol treatment (FIG. 3), which were better than observed with olmesartan.

[9] = test system: glucose transporter 2 (GLUT2); test: GLUT-2 protein expression in liver of diabetic rats (Western blot); type: in vivo, rat; conditions: 8 weeks treatment, FIG. 3
Protocol: as §4

SMILES	GSI (glomerulosclerotic index) (STZ diabetic rats [1])	Nephrin (rat nephrin)	TIMI (tubulointerstitial matrix index) (STZ diabetic rats [2])	Apoptosis (STZ diabetic rats [4])	Adiponectin (STZ diabetic rats [5])	Beta-2 microglobulin (GFR) (STZ diabetic rats [5])	Erythropoietin (STZ diabetic rats [5])	Nitric Oxide (STZ diabetic rats [5])	Plasma Insulin (STZ diabetic rats [5])	Serum Creatinine (GFR) (STZ diabetic rats [5])	Serum CystatinC (GFR) (STZ diabetic rats [5])	TGF-β (STZ diabetic rats [5])	TNF-α (STZ diabetic rats [5])	Total Proteins (STZ diabetic rats [5])	VEGF (STZ diabetic rats [5])	Reduction of fasting blood glucose (STZ diabetic rats [6])	Reduction of post prandial glucose (STZ diabetic rats [6])	Blood glucose, fasting, before treatment (STZ diabetic rats [6])	Blood glucose, post prandial, before treatment (STZ diabetic rats [6])	Blood glucose, fasting, after treatment (STZ diabetic rats [6])	also measured
C=C(C)[C@@H](CC=C(C)C)C[C@@]12C[C@@H](CC=C(C)C)C(C)(C)[C@@](CC=C(C)C)(C(=O)C(C(=O)c3ccc(O)c(O)c3)=C1O)C2=O [Garcinol]	1.4	50 % FA	2	20 % FA	3.297 ± 0.56 µg/mL	0.3488 ± 0.12 µg/mL	0.3508 ± 0.029 mlU/ml	0.32 ± 0.026 nmol/µL	12.13 ± 1.17 ng/mL	1.804 ± 0.36 mg/dL	0.4098 ± 0.028 ng/mL	3.908 ± 0.82 pg/mL	0.04059 ± 0.0092 pg/mL	2.05 ± 0.14 mg/mL	57.21 ± 3.89 pg/mL	~18%	~36%	166.2 ± 4.9 mg/dL	287 ± 24.7 mg/dL	136.2 ± 5.86 mg/dL	Diastolic blood pressure, after Garcinol administration (STZ diabetic rats [3]; after Garcinol administration): 112; Mean blood pressure, after Garcinol administration (STZ diabetic rats [3]; after Garcinol administration): 125; Systolic blood pressure, after Garcinol administration (STZ diabetic rats [3]; after Garcinol administration): 153; Diastolic blood pressure, before treatment (STZ diabetic rats [3]; before treatment): 127; Mean blood pressure, before treatment (STZ diabetic rats [3]; before treatment): 139; Systolic blood pressure, before treatment (STZ diabetic rats [3]; before treatment): 165; Blood glucose, post prandial, after treatment (STZ diabetic rats [6]): 190 ± 5.27 mg/dL; % BETA-CELL FUNCTION (STZ diabetic rats [7]): 31.4 ± 3.17; HOMA-INDEX (STZ diabetic rats [7]): 1.55 ± 0.0827
CCC1=C(C)CN(C(=O)NCCc2ccc(S(=O)(=O)NC(=O)N[C@H]3CC[C@H](C)CC3)cc2)C1=O [Glimepiride, glimepiride]	2.8	20 % FA	2	90 % FA	2.277 ± 0.86 µg/mL	1.42 ± 0.21 µg/mL	0.5141 ± 0.13 mlU/ml	0.33 ± 0.064 nmol/µL	14.38 ± 1.29 ng/mL	1.873 ± 0.56 mg/dL	0.2933 ± 0.033 ng/mL	8.316 ± 2.06 pg/mL	0.08563 ± 0.0167 pg/mL	1.956 ± 0.09 mg/mL	61.29 ± 2.54 pg/mL	~27%	~43%	165.2 ± 1.5 mg/dL	308 ± 4.98 mg/dL	119.2 ± 5.4 mg/dL	DNA fragmentation / apoptosis in kidney (qualitative) (STZ diabetic rats [4]): no change in the decrease in apoptosis; Qualitative expression of GLUT 4 in muscle [8]: did not show any improvement; Blood glucose, post prandial, after treatment (STZ diabetic rats [6]): 174 ± 3.75 mg/dL; % BETA-CELL FUNCTION (STZ diabetic rats [7]): 35.6 ± 5.24; HOMA-INDEX (STZ diabetic rats [7]): 1.53 ± 0.144; Qualitative expression of GLUT2 in liver [9]: did not show any improvement
CCCc1nc(C(C)(C)O)c(C(=O)OCc2oc(=O)oc2C)n1Cc1ccc(-c2ccccc2-c2nnn[nH]2)cc1 [Olmesartan, olmesartan medoxomil]	1.4	62.5 % FA	1	40 % FA	0.93 ± 0.18 µg/mL	0.6529 ± 0.21 µg/mL	0.2657 ± 0.047 mlU/ml	0.34 ± 0.097 nmol/µL	12.74 ± 1.48 ng/mL	2.063 ± 0.41 mg/dL	0.4617 ± 0.048 ng/mL	5.963 ± 0.896 pg/mL	0.05665 ± 0.013 pg/mL	2.123 ± 0.11 mg/mL	66.3 ± 1.14 pg/mL	14%	~10%	162.7 ± 4.34 mg/dL	288 ± 6.82 mg/dL	139.7 ± 5.05 mg/dL	Histopathological changes in kidney (qualitative) (STZ diabetic rats [1]; kidney of diabetic rats, FIG. 4): improvement in tubular injury was visible; DNA fragmentation / apoptosis in kidney (qualitative) (STZ diabetic rats [4]): decrease in the DNA fragmentation was clearly observed qualitatively; Blood glucose, post prandial, after treatment (STZ diabetic rats [6]): 259 ± 7.16 mg/dL; % BETA-CELL FUNCTION (STZ diabetic rats [7]): 21.7 ± 1.98; HOMA-INDEX (STZ diabetic rats [7]): 1.7 ± 0.095
